Source: PubChem BioAssay (NCI)
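Tested at 5 concentrations; 48 h exposure; 96-well plates; endpoints linearly interpolated, else capped at highest concentration. GI50 = concentration required for 50% inhibition of growth. TGI: total growth inhibition.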

How the values were obtained:
Experiment in all cases: NCI tumour cell line growth inhibition, 48 h
KM12 colon = test system: KM12 colon
MDA-MB-435 = test system: MDA-MB-435
OVCAR-4 ovarian = test system: OVCAR-4 ovarian
OVCAR-8 ovarian = test system: OVCAR-8 ovarian
SF-268 CNS = test system: SF-268 CNS
SF-295 CNS = test system: SF-295 CNS
SK-MEL-28 melanoma = test system: SK-MEL-28 melanoma
SNB-19 CNS = test system: SNB-19 CNS
UACC-62 melanoma = test system: UACC-62 melanoma
SNB-75 CNS = test system: SNB-75 CNS

| SMILES | TGI (KM12 colon) [µM] | TGI (MDA-MB-435) [µM] | TGI (OVCAR-4 ovarian) [µM] | TGI (OVCAR-8 ovarian) [µM] | TGI (SF-268 CNS) [µM] | TGI (SF-295 CNS) [µM] | TGI (SK-MEL-28 melanoma) [µM] | TGI (SNB-19 CNS) [µM] | TGI (UACC-62 melanoma) [µM] | TGI (SNB-75 CNS) [µM] | GI50 (KM12 colon) [µM] | GI50 (MDA-MB-435) [µM] | GI50 (OVCAR-4 ovarian) [µM] | GI50 (OVCAR-8 ovarian) [µM] | GI50 (SF-268 CNS) [µM] | GI50 (SF-295 CNS) [µM] | GI50 (SK-MEL-28 melanoma) [µM] | GI50 (SNB-19 CNS) [µM] | GI50 (SNB-75 CNS) [µM] | GI50 (UACC-62 melanoma) [µM] |
| --- | --- | --- | --- | --- | --- | --- | --- | --- | --- | --- | --- | --- | --- | --- | --- | --- | --- | --- | --- | --- |
| O=C(O)C#Cc1ccc([N+](=O)[O-])cc1 | > 100 | > 100 | > 100 | > 100 | > 100 | > 100 | > 100 | > 100 | > 100 |  |  |  |  |  |  |  |  |  |  |  |
| Cn1c(C2CC(C)(C)c3c2c2ccccc2n3C)cc2ccccc21 (centres undefined) | > 304 |  |  | > 304 | > 304 | > 304 | > 304 | > 304 | > 304 |  |  |  |  |  |  |  |  |  |  |  |
| O=C1CSc2ccncc2N1 |  |  | > 100 | > 100 | > 100 | > 100 | > 100 | > 100 | > 100 | > 100 |  |  |  |  |  |  |  |  |  |  |
| N=C(N)c1ccc(-c2ccc(-c3ccco3)o2)cc1F | 3.62 | 3.25 | 11.1 | 6.53 | 10.4 | 3.81 | 3.67 | 13.4 |  | 7.23 | 1.92 | 1.63 | 2.88 | 2.31 | 2.9 | 1.67 | 1.81 | 2.48 | 1.66 |  |
| Cn1c(-c2ccccc2)c/c(=N\NS(C)(=O)=O)c2cc(S(=O)(=O)O)ccc21 | > 100 |  | > 100 | > 100 | > 100 | > 100 | > 100 | > 100 | > 100 | > 100 |  |  |  |  |  |  |  |  |  |  |
| COC(=O)c1c/c(=N\NC(=O)CC(=O)Nc2ccc(C)cc2)c2ccccc2o1 | > 100 |  | > 100 | > 100 | > 100 | > 100 | > 100 | > 100 | > 100 | > 100 |  |  |  |  |  |  |  |  |  |  |
| COC(=O)c1cc(O)ccc1NC(=O)c1ccc(O)cc1 | > 100 |  | > 100 | > 100 | > 100 | > 100 | > 100 | > 100 | > 100 | > 100 |  |  |  |  |  |  |  |  |  |  |
| O=C1CC23CC(=O)CC2(C1)c1ccccc1C3=O (centres undefined) | > 100 |  |  | > 100 | > 100 | > 100 | > 100 | > 100 | > 100 | > 100 |  |  |  |  |  |  |  |  |  |  |
| Cc1ccc(C2CC(c3cccc(Nc4ccncc4)c3)=NN2c2ccc(Cl)cc2)cc1 (centres undefined) | 2.99 | 2.97 | 3.35 |  |  | 3.19 | 3.32 |  | 3.14 | 2.87 | 1.62 | 1.6 | 1.69 |  |  | 1.79 | 1.83 |  | 1.36 | 1.72 |
| FC(F)(F)c1ccccc1C=NC12CC3CC(CC(C3)C1)C2 | > 100 |  | > 100 | > 100 | > 100 | > 100 | > 100 | > 100 |  | > 100 |  |  |  |  |  |  |  |  |  |  |
| COC(=O)C1CCc2nnc(-c3cccnc3)n21 (centres undefined) | > 100 |  | > 100 | > 100 | > 100 |  | > 100 | > 100 | > 100 | > 100 |  |  |  |  |  |  |  |  |  |  |
| NC(CCCNCc1ccccc1O)C(=O)O (centres undefined) | > 100 |  | > 100 | > 100 | > 100 | > 100 | > 100 | > 100 | > 100 | > 100 |  |  |  |  |  |  |  |  |  |  |
| Clc1ccc(CCn2cncn2)c(Cl)c1 | > 100 |  | > 100 | > 100 | > 100 | > 100 | > 100 | > 100 | > 100 | > 100 |  |  |  |  |  |  |  |  |  |  |
| COc1cc2c(/C=C3/C(=O)Nc4c3ccc3ccccc43)c(Cl)[nH]c2cc1C |  | 0.0238 |  | 1.82 | > 14.6 | 0.0237 | > 50 | > 50 | > 19.8 |  | 0.0124 | 0.00618 |  | 0.0176 | 0.0218 | 0.00761 | 17.3 | 0.0402 |  | 0.0119 |
| NNc1nc(-c2ccccn2)nc2sc3c(c12)CCCCCC3 | 99 | > 100 | > 100 | > 100 | > 100 |  | > 100 |  | 48.8 | 95.9 | 6.46 | 5.17 | 10.4 | 4.39 | 7.25 |  | 14.9 |  | 12.6 | 5.96 |
| COC(=O)/C(Cl)=C1/CC1COCc1ccccc1 (centres undefined) | 77.4 |  | 84.2 | > 100 | > 100 | > 100 | 47.4 | > 100 | 66.8 | > 100 |  |  |  |  |  |  |  |  |  |  |
| O=C(CN/C=C\C(=O)c1cc(Cl)ccc1Cl)c1ccccc1 | 55.3 | 45 | > 100 | 71.4 | 83.4 | 50.7 | > 100 | > 100 | 52 |  | 23.8 | 19.2 | 49.8 | 26.4 | 24.8 | 20.4 | 41.9 | 47.4 |  | 20.7 |
| COc1ccc(/C=C2\CCCC3=C2N=C2SC=NN2C3c2ccc(OC)c(OC)c2)cc1OC (centres undefined) | > 100 | 42.8 |  | > 100 | > 100 | > 100 | > 100 | > 100 | 80 | 44.1 | 11.8 | 3.51 |  | 5.51 | 19.9 | 32.7 | 19.3 | 32.9 | 9.38 | 4.21 |
| CC1=NN(c2ccccc2)C(=O)C1C(=O)C(=O)Nc1ccc(C)cc1C (centres undefined) | > 100 |  | > 100 | > 100 | > 100 | > 100 | > 100 | > 100 | > 100 | > 100 |  |  |  |  |  |  |  |  |  |  |
| [O-][N+]1=C(c2ccccc2)COc2ccccc21 | > 100 |  | > 100 | > 100 | > 100 | > 100 | > 100 | > 100 | > 100 | > 100 |  |  |  |  |  |  |  |  |  |  |
